# US4738971A, “N-aryl-1,2-dihydro-4-substituted-1-alkyl-2-oxo-quinoline-3-carboxamides” (priority 1981, dated 1988)
# Where a name gives a salt, the structure may show the parent alone.
# Legend:
# [1] = test system: carrageenan-induced edema; assay: carrageenan edema test in rats; assay type: in vivo, rat (female Sprague-Dawley); settings: for change in vivo at 80 mg/kg: Rattus norvegicus, po, 80 mg/kg p.o., 30 min before carrageenan, edema weight 3 h after, vs control, preliminary, read-out: Potentiation of the carrageenan edema, %; for significant potentiation of the carrageenan edema: dose within the range 10-160 mg/kg p.o.
# Excerpt: Another test, in which the effect of a drug corresponds to the effects obtained in the tests mentioned above, and which can therefore also be used, is the well-established carrageenan edema test in rats (5). Comparative evaluation of compounds of the present invention in the three tests mentioned has shown that compounds which increase the extent of the delayed hypersensitivity reaction in the pertussis vaccine pleurisy test and in the adjuvant arthritis test also increase the extent of carrageenan-induced edema in the carrageenan edema test, thus providing a further tool for the determination of enhancement of cell-mediated immunity.
# This example illustrates the effect of the compounds of the general formula I in the carrageenan edema test in rats.
# A modification of a method described in (5) was used. Female Sprague-Dawleyrats weighing 110-120 g was used. At least 10 animals were used in each experimental group. Foot edema was induced by injecting carrageenan in 0.9% NaCl into the plantar surface of the right hind paw of the rats.
# The substances suspended in aqueous methocel solution 10 ml/kg were administered intragastrically 30 minutes before the injection of carrageenan. The control groups were given methocel solution 10 ml/kg.
# Three hours after carrageenan injection the animals were killed. The hind feet were cut off and weighed. The difference in weight of the injected right paw and the uninjected left paw was called edema weight.
# The effect of the substances was assessed by the edema weight expressed in percent after comparison with the control groups.
# [2] = test system: delayed hypersensitivity reaction (pertussis vaccine pleurisy); assay: pertussis vaccine pleurisy test in rats; assay type: in vivo, rat (male Sprague-Dawley); settings: 10 mg/kg p.o.; for change in vivo at 10 mg/kg: Rattus norvegicus, po, 48 h, once daily day 10 to day 13, vs control, preliminary, read-out: Enhancement of the delayed hypersensitivity reaction assessed by the exudate vol.
# Excerpt: A useful test for the evaluation of the effect of chemical compounds on the immune system is the pertussis vaccine pleurisy test in rats. Compounds which enhance the response in this delayed hypersensitivity reaction are considered to stimulate cell-mediated immunity (4).
# This example illustrates the effect of the compounds of the general formula I in the pertussis vaccine pleurisy test.
# Pertussis vaccine pleurisy is a useful test for the evaluation of the effect of chemical compounds on the immune system. Compounds which enhance the response in this delayed hypersensitivity reaction are considered to stimulate cell-mediated immunity.
# A modification of a method described in (4) was used. Male Sprague-Dawley rats weighing 250-275 g were used. At least ten animals were used in each group.
# Equal volumes of Freund's incomplete adjuvant and a suspension of heat killed Bordetella pertussis organisms were mixed. To sensitize animals, day 0, 0.2 ml of a mixture containing 0.036×10^10 organisms/ml was injected into the dorsal surface of one hind paw and one forepaw.
# The animals were challenged on day 12 with 0.1 ml of a mixture containing 0.25×10^10 organisms/ml that was injected intrapleurally. 48 hours after challenge, day 14, the volume of the exudate in the pleural cavity was measured.
# The substances suspended in aqueous methocel solution 10 ml/kg were given intragastrically once daily from day 10 to day 13. The control groups were given methocel solution 10 ml/kg.
# The effect of the substances was assessed by the exudate volume expressed in percent after comparison with the control groups.
Compound,change in vivo at 80 mg/kg [1],change in vivo at 10 mg/kg [2],significant potentiation of the carrageenan edema [1],significant enhancing effect in the pertussis vaccine pleurisy test [2]
"CN(C)c1ccc2c(c1)c(O)c(C(=O)Nc1ccccc1)c(=O)n2C [1:5, N-phenyl-1,2-dihydro-6-dimethylamino-4-hydroxy-1-methyl-2-oxo-quinoline-3-carboxamide]",28%,47%,–,–
"Cn1c(=O)c(C(=O)Nc2ccccc2Cl)c(O)c2ccccc21 [1:8, N-/2-chlorophenyl/-1,2-dihydro-4-hydroxy-1-methyl-2-oxo-quinoline-3-carboxamide]",21%,27%,–,–
"CC(=O)Nc1ccc(NC(=O)c2c(O)c3ccccc3n(C)c2=O)cc1 [1:41, N-(4-acetylaminophenyl)-1,2-dihydro-4-hydroxy-1-methyl-2-oxo-quinoline-3-carboxamide]",–,–,potentiate significantly,significant enhancing effect
"CCCn1c(=O)c(C(=O)Nc2ccccn2)c(O)c2ccccc21 [7:10, N-/2-pyridyl/-1,2-dihydro-4-hydroxy-2-oxo-1-n-propyl-quinoline-3-carboxamide]",24%,41%,–,–
"O=C(Nc1ccc(N2CCCC2)cc1)c1c(O)c2cccc3c2n(c1=O)CC3 [12:7, N-(4-pyrrolidinophenyl)-1,2-dihydro-1,8-ethylene-4-hydroxy-2-oxo-quinoline-3-carboxamide, hydrochloride]",–,–,potentiate significantly,significant enhancing effect
"CN(C)c1ccc(NC(=O)c2c(O)c3cccc4c3n(c2=O)CC4)cc1 [12:8, N-(4-dimethylaminophenyl)-1,2-dihydro-1,8-ethylene-4-hydroxy-2-oxo-quinoline-3-carboxamide]",51%,29%,–,–
"COc1ccc2c(c1)c(O)c(C(=O)N(C)c1ccccc1)c(=O)n2C [20:5, N-methyl-N-phenyl-1,2-dihydro-4-hydroxy-6-methoxy-1-methyl-2-oxo-quinoline-3-carboxamide]",–,–,potentiate significantly,significant enhancing effect
"CN(C(=O)c1c(O)c2ccccc2n(C)c1=O)c1ccc(N2CCCCC2)cc1 [20:9, N-(4-piperidinophenyl)-N-methyl-1,2-dihydro-4-hydroxy-1-methyl-2-oxo-quinoline-3-carboxamide]",–,–,potentiate significantly,significant enhancing effect
"CCn1c(=O)c(C(=O)N(C)c2ccccc2)c(O)c2ccccc21 [20:10, N-methyl-N-phenyl-1,2-dihydro-1-ethyl-4-hydroxy-2-oxo-quinoline-3-carboxamide]",–,–,potentiate significantly,significant enhancing effect
"CN(C(=O)c1c(O)c2c(F)cccc2n(C)c1=O)c1ccccc1 [20:16, N-methyl-N-phenyl-1,2-dihydro-5-fluoro-4-hydroxy-1-methyl-2-oxo-quinoline-3-carboxamide]",–,–,potentiate significantly,significant enhancing effect
"CN(C(=O)c1c(O)c2ccccc2n(C)c1=O)c1ccc2c(c1)OCO2 [20:29, N-methyl-N-(3,4-methylenedioxyphenyl)-1,2-dihydro-4-hydroxy-1-methyl-2-oxo-quinoline-3-carboxamide]",–,–,potentiate significantly,significant enhancing effect
"COc1ccc(-n2c(=O)c(C(=O)N(C)c3ccccc3)c(O)c3ccccc32)cc1 [20:34, N-methyl-N-phenyl-1-(4-methoxyphenyl)-1,2-dihydro-4-hydroxy-2-oxo-quinoline-3-carboxamide]",–,–,potentiate significantly,significant enhancing effect
"CC(=O)Nc1ccc(N(C)C(=O)c2c(O)c3ccccc3n(C)c2=O)cc1 [20:35, N-(4-acetylaminophenyl)-N-methyl-1,2-dihydro-4-hydroxy-1-methyl-2-oxo-quinoline-3-carboxamide]",–,–,potentiate significantly,significant enhancing effect
"C=CCn1c(=O)c(C(=O)N(C)c2ccc(N(C)C)cc2)c(O)c2ccccc21 [20:39, N-(4-dimethylaminophenyl)-N-methyl-1-allyl-1,2-dihydro-4-hydroxy-2-oxo-quinoline-3-carboxamide]",–,–,potentiate significantly,significant enhancing effect
"CN(C(=O)c1c(O)c2cccc3c2n(c1=O)CC3)c1ccccc1 [21:3, N-methyl-N-phenyl-1,2-dihydro-1,8-ethylene-4-hydroxy-2-oxo-quinoline-3-carboxamide]",–,–,potentiate significantly,significant enhancing effect
"CCCCN(C(=O)c1c(O)c2ccccc2n(C)c1=O)c1ccccc1 [21:8, N-(n-butyl)-N-phenyl-1,2-dihydro-4-hydroxy-1-methyl-2-oxo-quinoline-3-carboxamide]",–,–,potentiate significantly,significant enhancing effect
"CN(C)c1ccc(N(C)C(=O)c2c(O)c3ccccc3n(C)c2=O)cc1 [21:10, N-(4-dimethylaminophenyl)-N-methyl-1,2-dihydro-4-hydroxy-1-methyl-2-oxo-quinoline-3-carboxamide]",–,–,potentiate significantly,significant enhancing effect
"C=CCN(C(=O)c1c(O)c2ccccc2n(C)c1=O)c1ccccc1 [21:12, N-allyl-N-phenyl-1,2-dihydro-4-hydroxy-1-methyl-2-oxo-quinoline-3-carboxamide]",–,–,potentiate significantly,significant enhancing effect
"CCN(C(=O)c1c(OC)c2c(F)cccc2n(C)c1=O)c1ccc(OC)c(OC)c1 [21:16, N-(3,4-dimethoxyphenyl)-N-ethyl-1,2-dihydro-5-fluoro-4-methoxy-1-methyl-2-oxo-quinoline-3-carboxamide]",–,–,potentiate significantly,significant enhancing effect
"CN(C(=O)c1c(O)c2cccc3c2n(c1=O)CC3)c1cnccn1 [21:20, N-methyl-N-pyrazinyl-1,2-dihydro-1,8-ethylene-4-hydroxy-2-oxo-quinoline-3-carboxamide]",–,–,potentiate significantly,significant enhancing effect
"CN(C(=O)c1c(O)c2ccccc2n(C)c1=O)c1nccs1 [21:21, N-methyl-N-2-thiazolyl-1,2-dihydro-4-hydroxy-1-methyl-2-oxo-quinoline-3-carboxamide]",–,–,potentiate significantly,significant enhancing effect
